Laboratory results from ChEMBL document CHEMBL1144546, “Design and synthesis of rho kinase inhibitors (III)” (Bioorg Med Chem, 2007).

Tests used:
[1] = target: T1, Rho-associated protein kinase (Homo sapiens, UniProt O75116+Q13464)
[2] = target: Rho-associated protein kinase 2 (Rattus norvegicus) (UniProt Q62868); assay: Ex vivo inhibition of Rho kinase activity in Sprague-Dawley rat serum at 30 mg/kg, po after 8 hrs; assay type: organism-based; parameters: dose 30 mg/kg; scale not given: the % may be the effect or the level left
Sequence of Rho-associated protein kinase 2 (Rattus norvegicus) (Q62868 whole entry, looked up): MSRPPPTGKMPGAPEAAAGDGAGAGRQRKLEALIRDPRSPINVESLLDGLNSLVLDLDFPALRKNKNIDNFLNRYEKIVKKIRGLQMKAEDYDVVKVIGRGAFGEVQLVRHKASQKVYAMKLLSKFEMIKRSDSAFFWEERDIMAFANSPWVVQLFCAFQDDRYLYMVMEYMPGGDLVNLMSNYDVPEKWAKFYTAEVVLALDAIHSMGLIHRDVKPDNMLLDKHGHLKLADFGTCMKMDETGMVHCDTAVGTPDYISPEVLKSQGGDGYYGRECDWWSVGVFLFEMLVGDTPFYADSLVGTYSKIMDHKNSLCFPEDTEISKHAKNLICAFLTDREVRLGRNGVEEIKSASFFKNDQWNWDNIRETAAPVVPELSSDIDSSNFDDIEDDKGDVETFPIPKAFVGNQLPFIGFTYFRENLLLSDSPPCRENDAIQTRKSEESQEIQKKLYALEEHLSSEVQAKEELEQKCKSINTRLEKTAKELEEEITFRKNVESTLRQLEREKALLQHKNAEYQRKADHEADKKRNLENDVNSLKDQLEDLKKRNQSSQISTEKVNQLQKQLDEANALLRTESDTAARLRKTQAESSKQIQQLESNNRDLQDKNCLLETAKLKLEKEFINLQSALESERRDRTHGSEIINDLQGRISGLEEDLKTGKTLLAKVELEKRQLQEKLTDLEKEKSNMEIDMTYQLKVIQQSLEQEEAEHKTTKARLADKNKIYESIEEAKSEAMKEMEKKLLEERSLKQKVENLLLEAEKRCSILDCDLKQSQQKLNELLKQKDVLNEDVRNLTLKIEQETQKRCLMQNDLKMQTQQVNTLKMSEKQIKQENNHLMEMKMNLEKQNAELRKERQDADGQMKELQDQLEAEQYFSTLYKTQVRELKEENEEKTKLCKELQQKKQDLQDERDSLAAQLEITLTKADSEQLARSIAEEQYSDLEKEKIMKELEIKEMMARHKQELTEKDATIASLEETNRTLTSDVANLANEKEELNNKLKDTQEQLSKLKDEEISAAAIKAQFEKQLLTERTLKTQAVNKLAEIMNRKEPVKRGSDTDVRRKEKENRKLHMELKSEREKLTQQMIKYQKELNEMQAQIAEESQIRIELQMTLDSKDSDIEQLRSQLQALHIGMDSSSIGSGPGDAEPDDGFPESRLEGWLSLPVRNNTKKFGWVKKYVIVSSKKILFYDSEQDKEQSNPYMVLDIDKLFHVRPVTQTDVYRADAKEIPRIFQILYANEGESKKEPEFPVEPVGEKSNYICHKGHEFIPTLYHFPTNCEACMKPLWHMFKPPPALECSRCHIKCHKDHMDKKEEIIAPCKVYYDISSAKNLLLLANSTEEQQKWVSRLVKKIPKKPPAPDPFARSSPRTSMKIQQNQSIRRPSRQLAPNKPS

[3] = target: Rho-associated protein kinase 2 (Rattus norvegicus) (UniProt Q62868); assay: Ex vivo inhibition of Rho kinase activity in Sprague-Dawley rat serum at 30 mg/kg, po after 1 hrs; assay type: organism-based; parameters: dose 30 mg/kg; scale not given: the % may be the effect or the level left
[4] = target: Rho-associated protein kinase 2 (Rattus norvegicus) (UniProt Q62868); assay: Ex vivo inhibition of Rho kinase activity in Sprague-Dawley rat serum at 30 mg/kg, po after 4 hrs; assay type: organism-based; parameters: dose 30 mg/kg; scale not given: the % may be the effect or the level left
[5] = target: T1, Rho-associated protein kinase; assay: Inhibition of TPA-induced Rho kinase dependent MBS phosphorylation in MDCK 2 cells; assay type: functional, cell-based; details: Canis lupus familiaris
[6] = Metabolic stability in rat liver microsome at 10 uM after 30 mins; details: liver microsomes
[7] = Inhibition of MCP1-induced chemotaxis in U937 cells overexpressing CCR2; details: u-937

T1 sequence (O75116 whole entry, looked up): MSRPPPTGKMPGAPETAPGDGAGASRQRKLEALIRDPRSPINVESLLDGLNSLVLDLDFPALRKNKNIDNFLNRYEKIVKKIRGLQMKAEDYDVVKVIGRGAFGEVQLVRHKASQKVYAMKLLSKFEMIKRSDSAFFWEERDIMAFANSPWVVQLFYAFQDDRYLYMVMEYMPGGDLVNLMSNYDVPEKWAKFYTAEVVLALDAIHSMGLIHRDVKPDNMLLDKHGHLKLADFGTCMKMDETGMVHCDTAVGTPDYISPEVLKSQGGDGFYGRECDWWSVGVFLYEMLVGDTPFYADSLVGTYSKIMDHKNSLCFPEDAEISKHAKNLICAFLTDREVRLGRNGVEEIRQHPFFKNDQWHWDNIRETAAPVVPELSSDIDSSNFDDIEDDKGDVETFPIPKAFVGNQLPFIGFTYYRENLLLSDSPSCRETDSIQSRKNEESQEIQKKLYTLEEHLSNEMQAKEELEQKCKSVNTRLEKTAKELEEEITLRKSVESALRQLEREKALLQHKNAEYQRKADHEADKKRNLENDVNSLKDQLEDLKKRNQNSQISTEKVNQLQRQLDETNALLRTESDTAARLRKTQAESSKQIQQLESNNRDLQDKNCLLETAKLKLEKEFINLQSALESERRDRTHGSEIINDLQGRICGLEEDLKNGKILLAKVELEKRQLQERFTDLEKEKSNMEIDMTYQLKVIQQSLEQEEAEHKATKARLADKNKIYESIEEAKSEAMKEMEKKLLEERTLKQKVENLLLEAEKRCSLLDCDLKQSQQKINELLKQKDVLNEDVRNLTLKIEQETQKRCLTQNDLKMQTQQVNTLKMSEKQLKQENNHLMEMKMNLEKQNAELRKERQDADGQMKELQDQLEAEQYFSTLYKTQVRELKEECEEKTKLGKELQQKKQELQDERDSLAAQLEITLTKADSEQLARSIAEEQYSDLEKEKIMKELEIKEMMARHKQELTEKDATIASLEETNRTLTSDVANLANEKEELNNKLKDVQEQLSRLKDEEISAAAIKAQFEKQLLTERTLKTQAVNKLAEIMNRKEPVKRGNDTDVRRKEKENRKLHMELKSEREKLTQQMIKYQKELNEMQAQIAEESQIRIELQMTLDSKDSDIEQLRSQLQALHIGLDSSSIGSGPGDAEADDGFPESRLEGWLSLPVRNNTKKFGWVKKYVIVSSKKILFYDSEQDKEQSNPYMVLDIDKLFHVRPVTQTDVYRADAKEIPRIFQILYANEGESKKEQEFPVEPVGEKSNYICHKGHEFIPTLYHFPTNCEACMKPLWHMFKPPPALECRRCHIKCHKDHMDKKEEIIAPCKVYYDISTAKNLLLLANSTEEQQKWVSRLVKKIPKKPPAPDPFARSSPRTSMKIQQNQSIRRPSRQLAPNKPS
T1 sequence (Q13464 whole entry, looked up): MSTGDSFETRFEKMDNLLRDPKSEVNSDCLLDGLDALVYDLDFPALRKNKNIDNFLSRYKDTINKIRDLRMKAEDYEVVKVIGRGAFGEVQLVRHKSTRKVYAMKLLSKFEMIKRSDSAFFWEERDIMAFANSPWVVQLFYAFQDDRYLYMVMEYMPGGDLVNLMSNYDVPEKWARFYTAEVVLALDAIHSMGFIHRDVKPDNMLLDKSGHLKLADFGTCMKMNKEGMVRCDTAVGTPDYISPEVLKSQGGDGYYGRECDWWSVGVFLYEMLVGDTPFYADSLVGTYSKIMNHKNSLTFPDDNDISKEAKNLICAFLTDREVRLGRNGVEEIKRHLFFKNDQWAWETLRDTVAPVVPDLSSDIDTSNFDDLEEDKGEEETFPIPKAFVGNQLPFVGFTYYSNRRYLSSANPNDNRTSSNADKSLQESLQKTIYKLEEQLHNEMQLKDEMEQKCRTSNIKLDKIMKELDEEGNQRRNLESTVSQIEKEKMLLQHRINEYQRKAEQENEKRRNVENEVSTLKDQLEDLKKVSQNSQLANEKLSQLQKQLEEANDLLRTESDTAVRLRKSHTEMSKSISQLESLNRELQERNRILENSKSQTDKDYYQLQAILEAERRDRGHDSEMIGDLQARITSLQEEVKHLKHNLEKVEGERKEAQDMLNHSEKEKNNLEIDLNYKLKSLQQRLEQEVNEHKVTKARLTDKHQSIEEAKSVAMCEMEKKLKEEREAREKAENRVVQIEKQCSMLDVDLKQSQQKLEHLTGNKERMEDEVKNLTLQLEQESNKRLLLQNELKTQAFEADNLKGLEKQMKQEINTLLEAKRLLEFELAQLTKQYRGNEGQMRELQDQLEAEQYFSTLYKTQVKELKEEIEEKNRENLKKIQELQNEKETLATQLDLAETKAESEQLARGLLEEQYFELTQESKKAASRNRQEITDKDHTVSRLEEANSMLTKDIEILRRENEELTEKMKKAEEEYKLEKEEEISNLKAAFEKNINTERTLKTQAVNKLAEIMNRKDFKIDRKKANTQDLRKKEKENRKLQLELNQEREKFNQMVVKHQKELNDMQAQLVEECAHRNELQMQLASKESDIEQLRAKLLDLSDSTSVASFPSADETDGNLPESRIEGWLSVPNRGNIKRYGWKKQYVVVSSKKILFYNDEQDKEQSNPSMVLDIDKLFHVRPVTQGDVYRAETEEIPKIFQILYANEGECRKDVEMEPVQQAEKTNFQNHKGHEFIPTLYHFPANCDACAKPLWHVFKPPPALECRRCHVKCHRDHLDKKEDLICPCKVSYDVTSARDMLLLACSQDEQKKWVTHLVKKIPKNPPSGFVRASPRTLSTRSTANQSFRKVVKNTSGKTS

SMILES: CCCN[C@H]1CC[C@H](Nc2cccc3cnccc23)CC1
- IC50 [1]: 180 nM

SMILES: CCCN[C@H]1CC[C@@H](Nc2cccc3cnccc23)CC1
- IC50 [1]: 180 nM

SMILES: CC(C)CN1CCC(Nc2cccc3cnccc23)CC1
- IC50 [1]: 210 nM

SMILES: Nc1ccc(CN2CCC(Nc3cccc4cnccc34)C2)cc1 (stereo unspecified)
- IC50 [1]: 235 nM

SMILES: Clc1ccccc1CN1CCC(Nc2cccc3cnccc23)C1 (stereo unspecified)
- IC50 [1]: 100 nM

SMILES: Nc1cccc(CN2CC[C@H](Nc3cccc4cnccc34)C2)c1
- Activity [2]: 0%
- Activity [3]: 30%
- Activity [4]: 17%
- IC50 [1]: 310 nM

SMILES: Clc1cccc(CN2CCCC(Nc3cccc4cnccc34)C2)c1 (stereo unspecified)
- IC50 [1]: 265 nM

SMILES: Clc1ccccc1CN1CCCC(Nc2cccc3cnccc23)C1 (stereo unspecified)
- IC50 [1]: 210 nM

SMILES: Clc1ccc(CN2CCC(Nc3cccc4cnccc34)C2)cc1 (stereo unspecified)
- IC50 [1]: 65 nM

SMILES: c1ccc(CCN[C@H]2CC[C@H](Nc3cccc4cnccc34)CC2)cc1
- IC50 [1]: 440 nM

SMILES: c1ccc(CCN[C@H]2CC[C@@H](Nc3cccc4cnccc34)CC2)cc1
- IC50 [1]: 580 nM

SMILES: Fc1ccc(CN2CCC(Nc3cccc4cnccc34)C2)cc1 (stereo unspecified)
- IC50 [1]: 95 nM

SMILES: Nc1cccc(CN2CC[C@@H](Nc3cccc4cnccc34)C2)c1
- Activity [2]: 26%
- Activity [3]: 52%
- Activity [4]: 42%
- IC50 [1]: 25 nM
- Activity [5]: Dose-dependent effect

SMILES: Fc1cccc(F)c1CN1CCC(Nc2cccc3cnccc23)C1 (stereo unspecified)
- IC50 [1]: 75 nM

SMILES: c1ccc(CN2CCC(Nc3cccc4cnccc34)CC2)cc1
- IC50 [1]: 140 nM

SMILES: Nc1cccc(CN2CCC(Nc3cccc4cnccc34)C2)c1 (stereo unspecified)
- remaining at 0.5 h, 10 µM [6]: 67%
- IC50 [1]: 275 nM

SMILES: c1cc(N[C@H]2CC[C@@H](NC3CC3)CC2)c2ccncc2c1
- IC50 [1]: 195 nM

SMILES: CC(C)CCN1CCCC(Nc2cccc3cnccc23)C1 (stereo unspecified)
- IC50 [1]: 270 nM

SMILES: O=S(=O)(c1cccc2cnccc12)N1CCCNCC1 [FASUDIL]
- IC50 [7]: 35000 nM

SMILES: Nc1ccccc1CN1CCC(Nc2cccc3cnccc23)C1 (stereo unspecified)
- IC50 [1]: 205 nM

SMILES: c1cc(N[C@H]2CC[C@H](NC3CC3)CC2)c2ccncc2c1
- IC50 [1]: 70 nM

SMILES: Clc1cccc(CN2CCC(Nc3cccc4cnccc34)C2)c1 (stereo unspecified)
- IC50 [1]: 65 nM

SMILES: CCCN1CCC(Nc2cccc3cnccc23)CC1
- IC50 [1]: 345 nM
